Results: patent US20230407243A1, “GENETIC PLATFORM TO INVESTIGATE THE FUNCTIONS OF BACTERIAL DRUG EFFLUX PUMPS” (priority 2022, published 2023)

Tests used:
Format in all cases: cell-based, Escherichia coli
[1] = tested on: EKO-35 araC::acrB Pore; test: MIC susceptibility profiling, porinated efflux platform; settings: for Fold changes of MICs: EKO-35 araC::acr-B Pore compared to EKO-35-Pore
In short: (§1)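 E. coli strains carrying a genomically integrated constitutive fhuA ΔC/Δ4L pore were grown 18 h in LB at 37 °C, then diluted 1/2000 in MHB II from OD600 ~1.0. Compounds were tested in duplicate, 2-fold serial titration, for 18 h at 37 °C with shaking. MIC came from OD600 with the pre-incubation background subtracted.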

[2] = tested on: EKO-35 araC::emrKY Pore; test: as above; settings: for Fold changes of MICs: EKO-35 araC::emrKY Pore compared to EKO-35-Pore; for MIC: Escherichia coli, read-out: Minimum inhibitory concentration
In short: as §1

[3] = tested on: EKO-35 araC::mexCD Pore; test: as above; settings: for Fold changes of MICs: EKO-35 araC::mexCD Pore compared to EKO-35-Pore; for MIC: Escherichia coli, read-out: Minimum inhibitory concentration
In short: as §1

[4] = tested on: EKO-35 araC::macAB Pore; test: as above; settings: for Fold changes of MICs: EKO-35 araC::macAB Pore compared to EKO-35-Pore; for MIC: Escherichia coli, read-out: Minimum inhibitory concentration
In short: as §1

[5] = tested on: EKO-35 araC::mdtBC Pore; test: as above; settings: for Fold changes of MICs: EKO-35 araC::mdtBC Pore compared to EKO-35-Pore; for MIC: Escherichia coli, read-out: Minimum inhibitory concentration
In short: as §1

[6] = tested on: EKO-35 araC::acrD Pore; test: as above; settings: for Fold changes of MICs: EKO-35 araC::acrD Pore compared to EKO-35-Pore; for MIC: Escherichia coli, read-out: Minimum inhibitory concentration, EKO-35 araC::acrD Pore
In short: as §1

[7] = tested on: EKO-35 araC::mdtEF Pore; test: as above; settings: for Fold changes of MICs: EKO-35 araC::mdtEF Pore compared to EKO-35-Pore; for MIC: Escherichia coli, read-out: Minimum inhibitory concentration, EKO-35 araC::mdtEF Pore
In short: as §1

[8] = tested on: EKO-35 araC::emrAB Pore; test: as above; settings: for Fold changes of MICs: EKO-35 araC::emrAB Pore compared to EKO-35-Pore; for MIC: Escherichia coli, read-out: Minimum inhibitory concentration
In short: as §1

[9] = tested on: EKO-35 araC::acrBD408A Pore; test: as above; settings: for Fold changes of MICs: EKO-35 araC::acrBD408A Pore compared to EKO-35-Pore; for MIC: Escherichia coli, read-out: Minimum inhibitory concentration
In short: as §1

[10] = tested on: EKO-35 araC::acrEF Pore; test: as above; settings: for Fold changes of MICs: EKO-35 araC::acrEF Pore compared to EKO-35-Pore; for MIC: Escherichia coli, read-out: Minimum inhibitory concentration, EKO-35 araC::acrEF Pore
In short: as §1

[11] = tested on: EKO-35 araC::mdtBC; test: MIC susceptibility profiling, efflux platform; settings: for Fold change of MICs: EKO-35 araC::mdtBC compared to EKO-35; for MIC: Escherichia coli, read-out: Minimum Inhibitory Concentration, EKO-35 araC::mdtBC
In short: (§2)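 OD600 read-out, background-corrected, after 18 h at 37 °C with shaking. Compounds were tested in duplicate as 2-fold series in MHB II, with DMSO as solvent control. Inoculum was a 1/2000 dilution of an OD600 ~1.0 PBS suspension.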

[12] = tested on: EKO-35 araC::mexCD (MexCD from P. aeruginosa); test: MIC susceptibility profiling, efflux platform; settings: for Fold change of MICs: EKO-35 araC::mexCD compared to EKO-35; for MIC: read-out: Minimum Inhibitory Concentration, EKO-35 araC::mexCD
In short: as §2

[13] = tested on: EKO-35 araC::acrEF; test: MIC susceptibility profiling, efflux platform; settings: for Fold change of MICs: EKO-35 araC::acrEF compared to EKO-35; for MIC: Escherichia coli, read-out: Minimum Inhibitory Concentration, EKO-35 araC::acrEF
In short: as §2

[14] = tested on: EKO-35 araC::emrAB; test: MIC susceptibility profiling, efflux platform; settings: for Fold change of MICs: EKO-35 araC::emrAB compared to EKO-35; for MIC: Escherichia coli, read-out: Minimum Inhibitory Concentration, EKO-35 araC::emrAB
In short: as §2

[15] = tested on: EKO-35 araC::macAB; test: MIC susceptibility profiling, efflux platform; settings: for Fold change of MICs: EKO-35 araC::macAB compared to EKO-35; for MIC: Escherichia coli, read-out: Minimum Inhibitory Concentration, EKO-35 araC::macAB
In short: as §2

[16] = tested on: EKO-35 araC::emrKY; test: MIC susceptibility profiling, efflux platform; settings: for Fold change of MICs: EKO-35 araC::emrKY compared to EKO-35; for MIC: Escherichia coli, read-out: Minimum Inhibitory Concentration, EKO-35 araC::emrKY
In short: as §2

[17] = tested on: EKO-35 araC::acrBD408A; test: MIC susceptibility profiling, efflux platform; settings: for Fold change of MICs: EKO-35 araC::acrBD408A compared to EKO-35; for MIC: Escherichia coli, read-out: Minimum Inhibitory Concentration, EKO-35 araC::acrBD408A
In short: as §2

[18] = tested on: EKO-35 araC::acrD; test: MIC susceptibility profiling, efflux platform; settings: for Fold change of MICs: EKO-35 araC::acrD compared to EKO-35
In short: as §2

[19] = EKO-35 araC::emrKY Pore, technical duplicate
[20] = EKO-35 araC::mexCD Pore, technical duplicate
[21] = EKO-35 araC::macAB Pore, technical duplicate
[22] = EKO-35 araC::mdtBC Pore, technical duplicate
[23] = Table 14A, porinated, technical duplicate
[24] = EKO-35 araC::emrAB Pore, technical duplicate
[25] = EKO-35 araC::acrBD408A Pore, technical duplicate
[26] = Table 13B, non-porinated, technical duplicate
[27] = Table 13A, non-porinated, technical duplicate

| Compound | Fold changes of MICs [1] | Fold changes of MICs [2] | MIC [2, 19] | Fold changes of MICs [3] | MIC [3, 20] | Fold changes of MICs [4] | Fold changes of MICs [5] | Fold changes of MICs [6] | Fold changes of MICs [7] | Fold changes of MICs [8] | Fold changes of MICs [9] | Fold changes of MICs [10] | Fold change of MICs [11] | Fold change of MICs [12] | Fold change of MICs [13] | Fold change of MICs [14] | Fold change of MICs [15] | Fold change of MICs [16] | Fold change of MICs [17] | Fold change of MICs [18] | also measured |
| --- | --- | --- | --- | --- | --- | --- | --- | --- | --- | --- | --- | --- | --- | --- | --- | --- | --- | --- | --- | --- | --- |
| CC(=O)O[C@H]1C[C@@]2(C)[C@@H](C[C@@H](O)[C@H]3[C@@]4(C)CC[C@@H](O)[C@@H](C)[C@@H]4CC[C@@]32C)/C1=C(\CCC=C(C)C)C(=O)O [fusidic acid] | 256 fold | 1 fold | 0.391 µg/mL | 4 fold | 1.56 µg/mL | 1 fold | 1 fold | 32 fold | 8 fold | 4 fold | 1 fold | 32 fold | 2 fold | 4 fold | 16 fold | 2 fold | 1 fold | 1 fold | 1 fold | 32 fold | MIC [4, 21]: 0.391 µg/mL; MIC [5, 22]: 0.391 µg/mL; MIC [6, 23]: 12.5 µg/mL; MIC [7, 23]: 3.12 µg/mL; efflux pump-mediated resistance vs EKO-35-Pore ([8]; EmrAB, porinated strain): associated with resistance; MIC [8, 24]: 1.56 µg/mL; MIC [9, 25]: 0.391 µg/mL; MIC [10, 23]: 12.5 µg/mL; MIC [11, 26]: 6.25 µg/mL; MIC [12, 26]: 12.5 µg/mL; MIC [13, 27]: 50 µg/mL; MIC [14, 26]: 6.25 µg/mL; MIC [15, 26]: 3.12 µg/mL; MIC [16, 26]: 3.12 µg/mL; MIC [17, 26]: 3.12 µg/mL |
| Cn1cc(Br)c(-c2cccc(NC(=O)Nc3ccc(OC(F)(F)F)cc3)c2)n1 [compound 14] | 1 fold | 1 fold | – | 1 fold | – | 1 fold | 1 fold | 1 fold | 1 fold | 1 fold | 1 fold | 1 fold | 1 fold | 1 fold | 1 fold | 1 fold | 1 fold | 1 fold | 1 fold | 1 fold | Minimum inhibitory concentration, EKO-35 araC::acrB Pore [1, 23]: 320 µg/mL; Minimum inhibitory concentration [2, 19]: 320 µg/mL; Minimum inhibitory concentration [3, 20]: 320 µg/mL; Minimum inhibitory concentration [4, 21]: 320 µg/mL; Minimum inhibitory concentration [5, 22]: 320 µg/mL; Minimum inhibitory concentration, EKO-35 araC::acrD Pore [6, 23]: 320 µg/mL; Minimum inhibitory concentration, EKO-35 araC::mdtEF Pore [7, 23]: 320 µg/mL; Minimum inhibitory concentration [8, 24]: 320 µg/mL; Minimum inhibitory concentration [9, 25]: 320 µg/mL; Minimum inhibitory concentration, EKO-35 araC::acrEF Pore [10, 23]: 320 µg/mL; Minimum Inhibitory Concentration, EKO-35 araC::mdtBC [11, 26]: 320 µg/mL; Minimum Inhibitory Concentration, EKO-35 araC::mexCD [12, 26]: 320 µg/mL; Minimum Inhibitory Concentration, EKO-35 araC::acrEF [13, 27]: 320 µg/mL; Minimum Inhibitory Concentration, EKO-35 araC::emrAB [14, 26]: 320 µg/mL; Minimum Inhibitory Concentration, EKO-35 araC::macAB [15, 26]: 320 µg/mL; Minimum Inhibitory Concentration, EKO-35 araC::emrKY [16, 26]: 320 µg/mL; Minimum Inhibitory Concentration, EKO-35 araC::acrBD408A [17, 26]: 320 µg/mL; Minimum Inhibitory Concentration, EKO-35 araC::acrD [18, 27]: 320 µg/mL |
| CC[n+]1c(-c2ccccc2)c2cc(N)ccc2c2ccc(N)cc21 [ethidium bromide] | 64 fold | 1 fold | 0.098 µg/mL | 8 fold | 0.781 µg/mL | 1 fold | 1 fold | 2 fold | 8 fold | 1 fold | 1 fold | 16 fold | 1 fold | 8 fold | 16 fold | 1 fold | 1 fold | 1 fold | 2 fold | 2 fold | MIC ([1]; Escherichia coli, Table 14A, porinated, technical duplicate, read-out: Minimum inhibitory concentration, EKO-35 araC::acrB Pore): 6.25 µg/mL; MIC [4, 21]: 0.098 µg/mL; MIC [5, 22]: 0.098 µg/mL; MIC [6, 23]: 0.195 µg/mL; MIC [7, 23]: 0.781 µg/mL; MIC [8, 24]: 0.098 µg/mL; MIC [9, 25]: 0.098 µg/mL; MIC [10, 23]: 1.56 µg/mL; MIC [11, 26]: 0.195 µg/mL; MIC [12, 26]: 1.56 µg/mL; MIC [13, 27]: 3.12 µg/mL; MIC [14, 26]: 0.195 µg/mL; MIC [15, 26]: 0.195 µg/mL; MIC [16, 26]: 0.195 µg/mL; MIC [17, 26]: 0.391 µg/mL; MIC ([18]; Escherichia coli, Table 13A, non-porinated, technical duplicate, read-out: Minimum Inhibitory Concentration, EKO-35 araC::acrD): 0.391 µg/mL |
